System: Melan-a melanocytes
Assay: Assay for melanin production in melan-a melanocytes (absorbance of melanin at 490 nm per protein)
Assay type: cell-based, mice
Settings: at 3 μM; average; results of FIG. 1
Experimental: Melan-a melanocytes (α/α, P/P), an immortalized melanocyte line derived from C57BLI6J mice wild type at the p locus (Bennett et al. (1987), Int. J. Cancer 39:414-418), were incubated in Dulbecco's modification of Eagle's medium (DMEM: 10% fetal calf serum, 2 mM L-glutamine, 1 mM sodium pyruvate, 1% MEM non-essential amino acids 100×, […]). Immediately before using the medium, tetradecanoyl phorbol acetate (TPA) was added at 200 nM. Cells were seeded in T-25 flasks with 4×10^4 cells/ml×4.5 ml/flask (10-20% confluent) and were grown at 37° C. with 5% CO2. Twenty-four hours later, a compound to be tested (diluted in 0.5 ml media) was added to the media. Forty-eight hours after the addition of drug, both the media and drug were changed. Cells were harvested after an additional 48 or 72 hours (100% confluent). In harvesting the cells, the reagents and cells were kept at 4° C. Briefly, the media was removed from the cells, and one milliliter of media was reserved if needed for the tyrosinase assay. The cells were then rinsed with approximately 500 μl cold 1×phosphate buffered saline (PBS) until the PBS rinse was clear. […] 2 N NaOH in 20% DMSO was used as a blank, and the samples were read at a wavelength of 490 nm. The data were reported as absorbance of melanin per protein calculated for the total sample. […]

Compound: C/C=C/C/C=C/CCC(=O)[C@H]1O[C@H]1C(N)=O [cerulenin, [2R,3S]-2,3-epoxy-4-oxo-7,10-trans, trans-dodecanoic acid amide]
- decrease of pigmentation in melan-a melanocytes: 50%
